Values quoted from earlier work in patent publication US20110117194A1, “PHARMACEUTICAL FORMULATION CONTAINING ANGIOTENSIN-II RECEPTOR BLOCKER” (priority 2008, published 2011).

time to peak blood concentration (active losartan molecule released into blood): ≤ 1 h
plasma clearance rate (in vivo): 600 mL/min
Compound: CCCCc1nc(Cl)c(CO)n1Cc1ccc(-c2ccccc2-c2nn[nH]n2)cc1 [losartan]
